Results from the NIST ThermoML archive (doi:10.1016/j.jct.2012.09.016).
Numbers after ± are expanded uncertainties.

Assays:
[1] = Liquid, Vibrating tube method
[2] = molar heat capacity at constant pressure; conditions: Liquid, Small sample (50 mg) DSC

CCCCCN [1-pentanamine]
Conditions	mass density, [1] [kg/m3]	molar heat capacity at constant pressure, [2] [J/K/mol]
293.15 K, 100 kPa	754 ± 0.2	–
293.15 K, 10000 kPa	760.8 ± 0.3	–
293.15 K, 20000 kPa	767.2 ± 0.4	–
293.15 K, 30000 kPa	773.3 ± 0.5	–
293.15 K, 40000 kPa	779 ± 0.6	–
293.15 K, 50000 kPa	784.3 ± 0.7	–
293.15 K, 60000 kPa	789.3 ± 0.8	–
293.15 K, 70000 kPa	794 ± 0.9	–
293.15 K, 80000 kPa	798.5 ± 1	–
293.15 K, 90000 kPa	802.9 ± 1.1	–
293.15 K, 100000 kPa	806.9 ± 1.2	–
293.15 K, 110000 kPa	810.9 ± 1.3	–
293.15 K, 120000 kPa	814.6 ± 1.3	–
293.15 K, 130000 kPa	818.2 ± 1.4	–
293.15 K, 140000 kPa	821.8 ± 1.5	–
313.15 K, 100 kPa	–	221.7 ± 3.8
313.15 K, 20000 kPa	–	219.7 ± 3.8
313.15 K, 40000 kPa	–	218.3 ± 3.8
313.15 K, 60000 kPa	–	217.9 ± 3.8
323.15 K, 100 kPa	–	222.7 ± 3.9
323.15 K, 20000 kPa	–	220.1 ± 3.8
323.15 K, 40000 kPa	–	218.7 ± 3.8
323.15 K, 60000 kPa	–	218.3 ± 3.8
333.15 K, 100 kPa	–	223.9 ± 3.9
333.15 K, 20000 kPa	–	220.8 ± 3.8
333.15 K, 40000 kPa	–	219.4 ± 3.8
333.15 K, 60000 kPa	–	218.9 ± 3.8
343.15 K, 100 kPa	–	225.3 ± 3.9
343.15 K, 20000 kPa	–	221.8 ± 3.8
343.15 K, 40000 kPa	–	220.5 ± 3.8
343.15 K, 60000 kPa	–	219.8 ± 3.8
353.15 K, 100 kPa	698.5 ± 0.2	226.9 ± 3.9
353.15 K, 10000 kPa	709.4 ± 0.4	–
353.15 K, 20000 kPa	718.5 ± 0.5	223.3 ± 3.9
353.15 K, 30000 kPa	726.8 ± 0.6	–
353.15 K, 40000 kPa	734.3 ± 0.7	221.8 ± 3.8
353.15 K, 50000 kPa	741.2 ± 0.9	–
353.15 K, 60000 kPa	747.6 ± 1	221.1 ± 3.8
353.15 K, 70000 kPa	753.6 ± 1.1	–
353.15 K, 80000 kPa	759.3 ± 1.2	–
353.15 K, 90000 kPa	764.7 ± 1.3	–
353.15 K, 100000 kPa	769.8 ± 1.4	–
353.15 K, 110000 kPa	774.5 ± 1.5	–
353.15 K, 120000 kPa	779 ± 1.6	–
353.15 K, 130000 kPa	783.5 ± 1.7	–
353.15 K, 140000 kPa	787.7 ± 1.8	–
363.15 K, 100 kPa	688.6 ± 0.2	–
363.15 K, 10000 kPa	700.1 ± 0.4	–
363.15 K, 20000 kPa	710 ± 0.5	225.1 ± 3.9
363.15 K, 30000 kPa	718.7 ± 0.6	–
363.15 K, 40000 kPa	726.6 ± 0.8	223.5 ± 3.9
363.15 K, 50000 kPa	733.9 ± 0.9	–
363.15 K, 60000 kPa	740.6 ± 1	222.6 ± 3.9
363.15 K, 70000 kPa	746.9 ± 1.1	–
363.15 K, 80000 kPa	752.8 ± 1.2	–
363.15 K, 90000 kPa	758.5 ± 1.3	–
363.15 K, 100000 kPa	763.7 ± 1.4	–
363.15 K, 110000 kPa	768.7 ± 1.5	–
363.15 K, 120000 kPa	773.4 ± 1.6	–
363.15 K, 130000 kPa	777.9 ± 1.7	–
363.15 K, 140000 kPa	782.1 ± 1.8	–
373.15 K, 100 kPa	679 ± 0.2	–
373.15 K, 10000 kPa	691.5 ± 0.4	–
373.15 K, 20000 kPa	702 ± 0.5	227.4 ± 3.9
373.15 K, 30000 kPa	711.3 ± 0.7	–
373.15 K, 40000 kPa	719.6 ± 0.8	225.5 ± 3.9
373.15 K, 50000 kPa	727.1 ± 0.9	–
373.15 K, 60000 kPa	734.1 ± 1	224.5 ± 3.9
373.15 K, 70000 kPa	740.5 ± 1.1	–
373.15 K, 80000 kPa	746.7 ± 1.2	–
373.15 K, 90000 kPa	752.3 ± 1.3	–
373.15 K, 100000 kPa	757.6 ± 1.5	–
373.15 K, 110000 kPa	762.7 ± 1.6	–
373.15 K, 120000 kPa	767.6 ± 1.6	–
373.15 K, 130000 kPa	772.2 ± 1.7	–
373.15 K, 140000 kPa	776.6 ± 1.8	–
383.15 K, 10000 kPa	682.6 ± 0.4	–
383.15 K, 20000 kPa	693.8 ± 0.5	230 ± 4
383.15 K, 30000 kPa	703.7 ± 0.7	–
383.15 K, 40000 kPa	712.3 ± 0.8	227.8 ± 3.9
383.15 K, 50000 kPa	720.3 ± 0.9	–
383.15 K, 60000 kPa	727.5 ± 1	226.6 ± 3.9
383.15 K, 70000 kPa	734.3 ± 1.2	–
383.15 K, 80000 kPa	740.6 ± 1.3	–
383.15 K, 90000 kPa	746.5 ± 1.4	–
383.15 K, 100000 kPa	752 ± 1.5	–
383.15 K, 110000 kPa	757.2 ± 1.6	–
383.15 K, 120000 kPa	762.2 ± 1.7	–
383.15 K, 130000 kPa	766.8 ± 1.8	–
383.15 K, 140000 kPa	771.4 ± 1.9	–
393.15 K, 10000 kPa	673.1 ± 0.4	–
393.15 K, 20000 kPa	685.2 ± 0.6	232.9 ± 4
393.15 K, 30000 kPa	695.5 ± 0.7	–
393.15 K, 40000 kPa	704.7 ± 0.8	230.4 ± 4
393.15 K, 50000 kPa	713.2 ± 0.9	–
393.15 K, 60000 kPa	720.8 ± 1.1	229 ± 4
393.15 K, 70000 kPa	727.9 ± 1.2	–
393.15 K, 80000 kPa	734.4 ± 1.3	–
393.15 K, 90000 kPa	740.3 ± 1.4	–
393.15 K, 100000 kPa	746 ± 1.5	–
393.15 K, 110000 kPa	751.4 ± 1.6	–
393.15 K, 120000 kPa	756.5 ± 1.7	–
393.15 K, 130000 kPa	761.4 ± 1.8	–
393.15 K, 140000 kPa	766 ± 1.9	–
403.15 K, 10000 kPa	664.1 ± 0.4	–
403.15 K, 20000 kPa	677 ± 0.6	236.3 ± 4.1
403.15 K, 30000 kPa	687.8 ± 0.7	–
403.15 K, 40000 kPa	697.3 ± 0.8	233.3 ± 4
403.15 K, 50000 kPa	705.9 ± 1	–
403.15 K, 60000 kPa	713.9 ± 1.1	231.8 ± 4
403.15 K, 70000 kPa	721 ± 1.2	–
403.15 K, 80000 kPa	727.8 ± 1.3	–
403.15 K, 90000 kPa	734 ± 1.4	–
403.15 K, 100000 kPa	739.9 ± 1.6	–
403.15 K, 110000 kPa	745.4 ± 1.7	–
403.15 K, 120000 kPa	750.7 ± 1.8	–
403.15 K, 130000 kPa	755.7 ± 1.9	–
403.15 K, 140000 kPa	760.5 ± 2	–
